Test results reported in US20260132152A1, “SOLID FORMS OF AN ORALLY-DELIVERED BETA-LACTAMASE INHIBITOR AND USES THEREOF” (Venatorx Pharmaceuticals, Inc., priority 2019, published 2026).
Converted amounts (≈) assume the structure as drawn. Like-named read-outs stand apart in the source and are kept apart here. Each block holds one molecule with its values, some of them ahead of it.

Assays:
Type in all cases: physicochemical
[1] = Exposure to elevated RH (75%, 85%, 97%) at room temperature
Protocol: Samples of Compound 1-ethanolate Form A were exposed to elevated RH (75%, 85% and 97%) at room temperature for approximately 3 hours and 24 hours (Table 8).

[2] = Visual solubility estimates by aliquot addition at ambient temperature
Protocol: Visual solubility estimates for Compound 1-ethanolate Form A were determined in a variety of solvents and solvent mixtures using an aliquot addition method to aid in experimental design.

[3] = Solvent-mediated interconversion slurries with seeds of Form A and Form B; conditions: slurries in 3% DCM in heptane and 5% EtOH in heptane, room temperature, ~2 weeks, XRPD
Protocol: Saturated solutions of Compound 1-ethanolate were prepared in 3% DCM in heptane and 5% EtOH in heptane.
Approximately equal amounts of Form A, and Form B (containing a minor amount of Form A) were added to the filtered saturated solutions, and the suspensions were slurried at room temperature for ˜2 weeks, and the isolated solids were observed by polarized light microscopy (PLM) and analyzed by XRPD.

[4] = Dynamic vapor sorption (DVS) analysis, 5% RH to 95% RH and back to 5% RH at 10% RH increments; conditions: for State of sample after DVS analysis: after 5-95-5% RH cycle
Protocol: Moisture sorption/desorption data were collected on a VTI SGA-100 Vapor Sorption Analyzer. NaCl and PVP were used as calibration standards. Samples were not dried prior to analysis. Sorption and desorption data were collected over a range from 5% to 95% RH at 10% RH increments under a nitrogen purge (RH=relative humidity). The equilibrium criterion used for analysis was less than 0.0100% weight change in 5 minutes with a maximum equilibration time of 3 hours. Data were not corrected for the initial moisture content of the samples.
DVS analysis of Compound 1-ethanolate Form A was conducted from 5% relative humidity (RH) to 95% RH and back to 5% RH at 10% RH increments (FIG. 7). […] A loss of 1.8 wt % was observed between 55% RH and 65% RH possibly due to water displacing ethanol. After 65% RH, the sample gained 3.8 wt % between 65% RH and 95% RH. […] Weight loss (˜7.6 wt %) was observed between 95% RH and 5% RH (i.e., desorption). After DVS analysis, it was noted that the sample had deliquesced.
DVS analysis of Compound 1-ethanolate Form B (with minor Form A) was conducted from 5% RH to 95% RH and back to 5% RH at 10% RH increments (FIG. 12). The DVS isotherm of Form B is qualitatively similar to that of Form A. Form B lost 0.2 wt % upon equilibration at ˜5% RH. […] A weight loss of 1.1% was observed between 45% RH and 55% RH, possibly due to the displacement of the ethanol with water. After 55% RH, the sample gained 3.3 wt % between 55% RH and 95% RH. […] Weight loss (˜5.8 w1%) was observed during desorption from 95% RH to 5% RH.

[5] = Separate DVS analysis with stepped increase in relative humidity, 0% RH to 60% RH, 4 h per step, then XRPD; conditions: for Mass change in stepped DVS: at humidities higher than 40% RH, loss of ethanol from the boronate ester complex; for Mass increase in stepped DVS: from 0% RH to 40% RH; for Retention of crystal structure (XRPD after stepped DVS): up to 60% r.h.
Protocol: A second set of DVS experiments were conducted using a stepped method from 0% RH to 60% RH with steps of 10% RH and four hours of equilibration at each humidity value. […] The samples were placed on an aluminum holder and allowed to equilibrate at 0% RH before starting the following predefined humidity program; hold for 4 h at 0% RH, increase humidity by a step of 10% RH, hold for 4 h. repeat the above two steps five times until a value of 60% RH has been reached. The samples were then analyzed for crystallinity using the second set of XRPD conditions.

[6] = Mass spectrometric analysis of conversion of the ethanolate to Compound 1 in water; conditions: in the presence of water, high-resolution MS
Protocol: High resolution mass spectra from 50 to 3000 Da were collected with a Bruker Maxis —Plus QTOF mass spectrometer using an electrospray ionization source. The instrument was controlled and data analyzed using Bruker Compass v.4.4 software. The mass spectrometer was calibrated immediately prior to analyses and was operated in positive ionization mode using an Electrospray Ionization (ESI) source. Samples were prepared by dilution in absolute ethanol (without denaturants) or HPLC grade water prior to direct infusion into the ion source.
Mass spectrometric (MS) analyses were performed to confirm the structure of Compound 1-ethanolate Form A, and evaluate the ability of EtOH to dissociate from Compound 1-ethanolate in water. Compound 1-ethanolate Form A, and an amorphous preparation of ((2-ethylbutanoyl)oxy)methyl (R)-2-hydroxy-3-propionamido-3,4-dihydro-2H-benzo[e][1,2]oxaborinine-8-carboxylate were diluted in absolute EtOH or water and analyzed by high-resolution mass spectrometry. A sample of amorphous ((2-ethylbutanoyl)oxy)methyl (R)-2-hydroxy-3-propionamido-3.4-dihydro-2H-benzo[e]|1.2]oxaborinine-8-carboxylate, dissolved in absolute EtOH, was spiked with water prior to analysis. […] The exact mass observed for sodiated Compound 1-ethanolate was 442.2007 (difference=1.4 ppm vs. theoretical: C21H30BNO7Na: 442.2013 Da). […]

Observation on exposure to elevated RH ([1]; 75% RH, after 3 hours): no deliquescence
Observation on exposure to elevated RH ([1]; 75% RH, after 24 hours): began deliquescing
Observation on exposure to elevated RH ([1]; 85% RH, after 3 hours): appeared wet with solids present
Observation on exposure to elevated RH ([1]; 85% RH, after 24 hours): deliquesced
Observation on exposure to elevated RH ([1]; 97% RH, after 3 hours): deliquescence was observed
Observation on exposure to elevated RH ([1]; 97% RH, after 24 hours): deliquesced
solubility ([2]; Cyclohexane): <1 mg/mL
solubility ([2]; Heptane): <1 mg/mL
solubility ([2]; organic solvent or mixture, thermodynamic from solid, ACN, read-out: Solubility): > 66 mg/mL
solubility ([2]; organic solvent or mixture, thermodynamic from solid, Acetone, read-out: Solubility): 34 mg/mL (≈ 81.1 mM)
solubility ([2]; organic solvent or mixture, thermodynamic from solid, Anisole, read-out: Solubility): 35 mg/mL (≈ 83.5 mM)
solubility ([2]; organic solvent or mixture, thermodynamic from solid, Chloroform, read-out: Solubility): 36 mg/mL (≈ 85.9 mM)
solubility ([2]; organic solvent or mixture, thermodynamic from solid, Cyclohexane, read-out: Solubility): < 1 mg/mL
solubility ([2]; organic solvent or mixture, thermodynamic from solid, Cyclohexane:EtOAc 3:1 by volume, read-out: Solubility): 4 mg/mL (≈ 9.54 mM)
solubility ([2]; organic solvent or mixture, thermodynamic from solid, Cyclohexane:EtOH 90:10 by volume, read-out: Solubility): 17 mg/mL (≈ 40.5 mM)
solubility ([2]; organic solvent or mixture, thermodynamic from solid, DCM, read-out: Solubility): 34 mg/mL (≈ 81.1 mM)
solubility ([2]; organic solvent or mixture, thermodynamic from solid, DMF, read-out: Solubility): > 63 mg/mL
solubility ([2]; organic solvent or mixture, thermodynamic from solid, DMSO, read-out: Solubility): > 71 mg/mL
solubility ([2]; organic solvent or mixture, thermodynamic from solid, Diethyl Ether, read-out: Solubility): 9 mg/mL (≈ 21.5 mM)
solubility ([2]; organic solvent or mixture, thermodynamic from solid, EtOAc, read-out: Solubility): > 68 mg/mL
solubility ([2]; organic solvent or mixture, thermodynamic from solid, EtOH, read-out: Solubility): > 68 mg/mL
solubility ([2]; organic solvent or mixture, thermodynamic from solid, Heptane, read-out: Solubility): < 1 mg/mL
solubility ([2]; organic solvent or mixture, thermodynamic from solid, Heptane:MEK 2:1 by volume, read-out: Solubility): 22 mg/mL (≈ 52.5 mM)
solubility ([2]; organic solvent or mixture, thermodynamic from solid, IPA, read-out: Solubility): 34 mg/mL (≈ 81.1 mM)
solubility ([2]; organic solvent or mixture, thermodynamic from solid, IPOAc, read-out: Solubility): > 66 mg/mL
solubility ([2]; organic solvent or mixture, thermodynamic from solid, MEK, read-out: Solubility): 37 mg/mL (≈ 88.2 mM)
solubility ([2]; organic solvent or mixture, thermodynamic from solid, MTBE, read-out: Solubility): 22 mg/mL (≈ 52.5 mM)
solubility ([2]; organic solvent or mixture, thermodynamic from solid, Nitromethane, read-out: Solubility): > 68 mg/mL
solubility ([2]; organic solvent or mixture, thermodynamic from solid, TFE, read-out: Solubility): > 66 mg/mL
solubility ([2]; organic solvent or mixture, thermodynamic from solid, THF, read-out: Solubility): > 64 mg/mL
solubility ([2]; organic solvent or mixture, thermodynamic from solid, Toluene, read-out: Solubility): 33 mg/mL (≈ 78.7 mM)
solubility ([2]; organic solvent or mixture, thermodynamic from solid, Xylene, read-out: Solubility): 17 mg/mL (≈ 40.5 mM)
Thermodynamically stable polymorph [3]: the stable form at room temperature
Thermodynamically stable polymorph ([3]; listed as Polymorph form A): thermodynamically stable
State of sample after DVS analysis [4]: deliquesced
Weight loss in DVS (desorption) ([4]; between 95% RH and 5% RH): ~7.6 wt %
Weight % chg ([4]; desorption, elapsed 731.2 min, sample RH 85.19%, 25.19 °C): 0.633%
Weight % chg ([4]; desorption, elapsed 918.9 min, sample RH 74.98%, 25.19 °C): −0.694%
Weight % chg ([4]; desorption, elapsed 1106.5 min, sample RH 65.14%, 25.19 °C): −1.716%
Weight % chg ([4]; desorption, elapsed 1296.4 min, sample RH 54.99%, 25.19 °C): −2.592%
Weight % chg ([4]; desorption, elapsed 1483.9 min, sample RH 45.11%, 25.19 °C): −3.308%
Weight % chg ([4]; desorption, elapsed 1671.4 min, sample RH 35.03%, 25.19 °C): −3.916%
Weight % chg ([4]; desorption, elapsed 1859.0 min, sample RH 25.06%, 25.19 °C): −4.432%
Weight % chg ([4]; desorption, elapsed 2044.7 min, sample RH 14.87%, 25.19 °C): −4.883%
Weight % chg ([4]; desorption, elapsed 2228.6 min, sample RH 5.67%, 25.19 °C): −5.275%
Hygroscopicity ([4]; from 5-55% RH): non-hygroscopic
Weight gain in DVS ([4]; sorption, between 5% RH and 55% RH): ~0.3 wt %
Weight loss in DVS ([4]; sorption, between 55% RH and 65% RH, possibly water displacing ethanol): 1.8 wt %
Weight gain in DVS ([4]; sorption, between 65% RH and 95% RH): 3.8 wt %
Weight % chg ([4]; sorption, elapsed 21.1 min, sample RH 5.15%, 25.19 °C): −0.043%
Weight % chg ([4]; sorption, elapsed 39.7 min, sample RH 14.86%, 25.19 °C): −0.003%
Weight % chg ([4]; sorption, elapsed 51.8 min, sample RH 24.90%, 25.20 °C): 0.051%
Weight % chg ([4]; sorption, elapsed 64.8 min, sample RH 34.83%, 25.19 °C): 0.120%
Weight % chg ([4]; sorption, elapsed 78.3 min, sample RH 44.87%, 25.19 °C): 0.214%
Weight % chg ([4]; sorption, elapsed 91.2 min, sample RH 54.86%, 25.18 °C): 0.316%
Weight % chg ([4]; sorption, elapsed 281.1 min, sample RH 65.03%, 25.18 °C): −1.494%
Weight % chg ([4]; sorption, elapsed 294.7 min, sample RH 74.65%, 25.20 °C): −1.170%
Weight % chg ([4]; sorption, elapsed 356.0 min, sample RH 84.85%, 25.19 °C): 0.451%
Weight % chg ([4]; sorption, elapsed 543.7 min, sample RH 94.83%, 25.19 °C): 2.311%
Weight % chg ([4]; start, elapsed 0.1 min, sample RH 0.99%, 25.18 °C): 0.000%
Mass change in stepped DVS [5]: a decrease in mass was observed
Mass increase in stepped DVS [5]: 0.3 wt, -%
Structure (SMILES): CCOB1Oc2c(cccc2C(=O)OCOC(=O)C(CC)CC)C[C@@H]1NC(=O)CC [Compound 1-ethanolate Form A, ((2-ethylbutanoyl)oxy)methyl (R)-2-ethoxy-3-propionamido-3,4-dihydro-2H-benzo[e][1,2]oxaborinine-8-carboxylate]
Retention of crystal structure (XRPD after stepped DVS) [5]: retained its predominant crystal structure for at least four hours

State of sample after DVS analysis [4]: appeared to have deliquesced
Weight loss in DVS (desorption) ([4]; desorption from 95% RH to 5% RH): ~5.8 w1%
Weight loss upon equilibration ([4]; equilibration at ~5% RH): 0.2 wt %
Weight gain in DVS ([4]; sorption, between 5% RH and 45% RH): ~0.5 wt %
Weight loss in DVS ([4]; sorption, between 45% RH and 55% RH, possibly displacement of ethanol with water): 1.1%
Weight gain in DVS ([4]; sorption, between 55% RH and 95% RH): 3.3 wt %
Mass change in stepped DVS [5]: a decrease in mass was observed
Mass increase in stepped DVS [5]: 0.4 wt, -%
Structure (SMILES): CCOB1Oc2c(cccc2C(=O)OCOC(=O)C(CC)CC)C[C@@H]1NC(=O)CC [Compound 1-ethanolate Form B, ((2-ethylbutanoyl)oxy)methyl (R)-2-ethoxy-3-propionamido-3,4-dihydro-2H-benzo[e][1,2]oxaborinine-8-carboxylate]
Retention of crystal structure (XRPD after stepped DVS) [5]: retained its predominant crystal structure for at least four hours

Structure (SMILES): CCOB1Oc2c(cccc2C(=O)OCOC(=O)C(CC)CC)C[C@@H]1NC(=O)CC [Compound 1-ethanolate, ((2-ethylbutanoyl)oxy)methyl (R)-2-ethoxy-3-propionamido-3,4-dihydro-2H-benzo[e][1,2]oxaborinine-8-carboxylate]
Conversion to the free boronic acid (Compound 1) [6]: rapidly converted to the free boronic acid
